The text below walks through data of patent publication US10072304B2, “Nuclear localization of Src-family tyrosine kinases is required for growth factor-induced euchromatinization” (National University Corporation Chiba University, priority 2009, dated 2018).

This experiment deals with nuclear SFKs. The experiment is described as follows: In vitro tyrosine phosphorylation of purified nuclei (kinase activity of nuclear SFKs). It counts as biochemical, monkey. The conditions noted are these: purified COS-1 nuclei, 10 μM PP2, FIGS. 30 and 31. The method, then: Nuclei were prepared as described previously. In brief, COS-1 and HeLa cells were swollen in hypotonic buffer (10 mM HEPES-KOH, pH 7.9, 1.5 mM MgCl2, 10 mM KCl, 0.5 mM DTT, and 1 mM Na3VO4) containing protease inhibitors (2 mM phenylmethylsulfonyl fluoride, 50 μg/mL aprotinin, 100 μM leupeptin, and 25 μM pepstatin A) at 4° C. for 20 min, followed by homogenization with 20 strokes in a tight-fitting 1-ml Dounce homogenizer. After cell suspension was centrifuged at 200×g for 5 min, cell pellets were resuspended in 0.25 M sucrose containing protease inhibitors, 10 mM MgCl2, and 1 mM Na3VO4. […]
Confocal and Nomarski differential-interference-contrast images were obtained using a Fluoview FV500 confocal laser scanning microscope with a 40×1.00 NA oil and a 100×1.35 NA oil immersion objective (Olympus, Tokyo) and an LSM 510 confocal laser scanning microscope with a 63×1.40 NA oil immersion objective (Zeiss), as described. […] Emission signals were detected between 505 and 525 nm for fluorescein, at more than 560 nm for rhodamine and more than 610 nm for PI [44]. […] Fluorescence intensity plots of anti-histone H3K4me3, anti-ATF-2 pT69/71 and anti-HP1α antibody and PI staining (see FIGS. 18B, 19B, and 20B, respectively) were generated using Fluoview version 4.3 software (Olympus, Tokyo). […]

For `CC(C)(C)n1nc(-c2ccc(Cl)cc2)c2c(N)ncnc21` [PP2], the “ATP-induced increase in nuclear tyrosine phosphorylation in purified nuclei” value is on record as “significantly inhibited”.
